Test systems include A498 renal; BT-549 breast; HCT-15 colon; HL-60(TB) leukemia; K-562 leukemia; SK-MEL-5 melanoma; SK-OV-3 ovarian; SN12C renal; SR leukemia; SW-620 colon; UACC-257 melanoma.
Assay in all cases: growth of human tumour cells (NCI), 48 h

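A five-concentration, 48-hour dose response in 96-well plates underlies each endpoint, interpolated linearly between surrounding concentrations. At the TGI there is no net growth.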

For the compound `COC(=O)N1CC[C@@H]2CCC=C(c3cccc4c3OCO4)[C@@H]21`, the TGI in the test with A498 renal, in the test with BT-549 breast, in the test with HCT-15 colon, in the test on HL-60(TB) leukemia, with K-562 leukemia and with SK-MEL-5 melanoma was > 100 µM throughout. Moreover, the TGI in the test on SK-OV-3 ovarian, in the test on SN12C renal, in the test on SR leukemia, in the test on SW-620 colon and in the test on UACC-257 melanoma was > 100 µM throughout.

Consider `CC1=NN(c2nc(N)nc(CS(C)(=O)=O)n2)C(C)(C)C1`, for which the TGI in the test on A498 renal, in the test on BT-549 breast, in the test with HCT-15 colon, in the test on HL-60(TB) leukemia, with K-562 leukemia and in the test on SK-MEL-5 melanoma was > 100 µM throughout. Besides, the TGI with SK-OV-3 ovarian, in the test with SR leukemia, in the test with SW-620 colon and in the test on UACC-257 melanoma was > 100 µM each time.

As for `CC(C)(C)OC(=O)N1C(C2=COc3ccccc3O2)=COc2ccccc21`, the TGI in the test with A498 renal is 40.2 µM; with BT-549 breast, 71.4 µM; in the test with HCT-15 colon, > 100 µM; with HL-60(TB) leukemia, 45.5 µM; in the test with K-562 leukemia, 57 µM; with SK-MEL-5 melanoma, 64.4 µM. For the same compound, the TGI was > 100 µM in the test on SK-OV-3 ovarian; > 100 µM in the test on SN12C renal; 53.3 µM with SR leukemia; 67.8 µM in the test with SW-620 colon; 78 µM with UACC-257 melanoma.

Regarding `COc1ccc(C2CCc3nc4nc(N)nc(N)c4cc3C2)cc1` (configuration not stated), the TGI was 77.1 µM with A498 renal; 70.6 µM in the test on BT-549 breast; > 100 µM in the test on HCT-15 colon; > 100 µM in the test with HL-60(TB) leukemia; > 100 µM in the test on K-562 leukemia; > 100 µM with SK-MEL-5 melanoma. Further, the TGI was 25.3 µM with SK-OV-3 ovarian; 59.5 µM in the test on SN12C renal; 67.3 µM in the test with SR leukemia; > 100 µM in the test on SW-620 colon; > 100 µM with UACC-257 melanoma.

Regarding `CCCS(=O)(=O)O`, the TGI with A498 renal, with BT-549 breast, in the test on HCT-15 colon, in the test with HL-60(TB) leukemia, with K-562 leukemia and with SK-MEL-5 melanoma was > 100 µM in each case. Further, the TGI in the test on SK-OV-3 ovarian, with SR leukemia, in the test on SW-620 colon and with UACC-257 melanoma was > 100 µM throughout.

As to `O=C(Nc1ccc(Cl)cc1)c1cc(S(=O)(=O)Nc2n[nH]c(=O)[nH]2)c(SSc2cc(Cl)c(C(=O)Nc3ccc(Cl)cc3)cc2S(=O)(=O)Nc2n[nH]c(=O)[nH]2)cc1Cl`, the TGI in the test with A498 renal, in the test with BT-549 breast, in the test with HCT-15 colon, in the test with HL-60(TB) leukemia, in the test on K-562 leukemia and in the test with SK-MEL-5 melanoma was > 100 µM each time. Further, the TGI with SK-OV-3 ovarian, in the test with SN12C renal, in the test with SR leukemia, in the test with SW-620 colon and in the test with UACC-257 melanoma was > 100 µM in each case.

In the case of `C/C(Cl)=N\OC(=O)Nc1ccc([N+](=O)[O-])cc1`, the TGI with A498 renal was found to be 30.5 µM; in the test on BT-549 breast, 66.7 µM; in the test with HCT-15 colon it was 34.2 µM; in the test on HL-60(TB) leukemia, 4.09 µM; in the test on K-562 leukemia it was 4.22 µM; in the test with SK-MEL-5 melanoma, 31.2 µM. Moreover, the TGI with SK-OV-3 ovarian was > 32.6 µM; in the test with SN12C renal, 35.1 µM; in the test with SR leukemia, 74.2 µM; in the test with SW-620 colon, 4.06 µM; with UACC-257 melanoma, 30.9 µM.

Consider `O=c1oc2ncccc2n1Cc1ccc([N+](=O)[O-])cc1`, for which the TGI in the test on A498 renal, with BT-549 breast, in the test with HCT-15 colon, with HL-60(TB) leukemia, in the test with K-562 leukemia and with SK-MEL-5 melanoma was > 100 µM throughout. Also, the TGI with SK-OV-3 ovarian, in the test with SN12C renal, in the test with SR leukemia, with SW-620 colon and in the test on UACC-257 melanoma was > 100 µM throughout.

Take `CCOC(=O)C(SCCO)C(C(=O)OCC)n1ccc(N)nc1=O` (configuration not stated): the TGI in the test on A498 renal, in the test with BT-549 breast, in the test with HCT-15 colon, in the test on HL-60(TB) leukemia, with K-562 leukemia and with SK-MEL-5 melanoma was > 100 µM each time. Moreover, the TGI in the test on SK-OV-3 ovarian, with SN12C renal, in the test on SR leukemia, in the test on SW-620 colon and in the test with UACC-257 melanoma was > 100 µM throughout.

`CCN(CC)CCNc1ccc([N+](=O)[O-])c2nc3ccccc3c(N)c12`: the TGI in the test on A498 renal was 2.91 µM; in the test with BT-549 breast it was 2.38 µM; in the test with HCT-15 colon it was 1.75 µM; with HL-60(TB) leukemia it was 2.11 µM; with K-562 leukemia, 1.75 µM; in the test on SK-MEL-5 melanoma, 1.1 µM. For the same compound, the TGI in the test with SN12C renal was > 10 µM; with SR leukemia, 2.39 µM; in the test with SW-620 colon it was 1.91 µM; in the test with UACC-257 melanoma, 7.37 µM.
